Key:
[1] = system: Spodoptera littoralis L2; test: Action against Spodoptera littoralis L2 (sprayed cotton leaves, petri dish); assay type: in vivo; details: 96 h
Experimental: The following day leaves were placed in petri dishes containing a moist filter paper and 10 L2 larvae placed on the leaves. Petri dishes were covered with gauze and closed with a lid and left at a temperature of 25° C., 40-60% relative humidity and 16L:8D conditions. Assessment of dead and alife larvae was performed after four days. (30 insects assessed per treatment).

[2] = system: Aphis craccivora (nymphs); test: Action against Aphis craccivora (nymphs), bean leaf disks; assay type: in vivo; details: foliar, 96 h, Table B4, Pyroquilon 1 ppm, WP 25, nymphs on bean leaf disks, after four days
Experimental: Fourteen day old bean plants (Vicia faba var. Wittkiens) were sprayed with 60 ml sample solution. The following day 3.5 cm leaf disks were cut and placed in petri dishes containing 2 ml agar (2%) and 5-10 adult aphids placed on the leaves. Petri dishes were covered with gauze and closed with a lid and placed up-side down. The following day all adult aphids were removed and only nymphs left on the leaf at a temperature of 20° C., 60% relative humidity and 16L:8D conditions. Assessment of dead and alife aphids performed after four days. (3 replicates per treatment).

## O=C1CCc2cccc3c2N1CC3 [Pyroquilon, pyroquilon]
[1]; Table B1, Pyroquilon 1 ppm, WP 25, L2 larvae on cotton leaves, after four days
  mortality at 1 ppm: 6.7%
[1]; Table B3, Pyroquilon 10 ppm, WP 25, after four days
  mortality at 10 ppm: 6.7%
[2]
  mortality at 1 ppm: 3.3%
